Results from US20200063108A1, “THREE-DIMENSIONAL TISSUE STRUCTURES” (Dana-Farber Cancer Institute, Inc., priority 2017, published 2020).

What was measured:
Type in all cases: cell-based
[1] = tested on: drug-refractory prostate cancer 3-D organoids; experiment: Re-exposure of drug-refractory prostate cancer 3-D organoids to afatinib and vinblastine; settings: re-exposed to afatinib and vinblastine (100 nM) 5 days after first exposure drug-washout
Method: FIG. 10: Afatinib-refractory and vinblastine-refractory prostate cancer 3-D organoids longitudinally exposed to afatinib and vinblastine (100 nM) 5 days after the first exposure drug-washout.

[2] = tested on: prostate cancer patient-derived 3-D organoids; experiment: Exposure of prostate cancer patient-derived 3-D organoids to cytotoxic drugs; settings: 100 nM, 3D conditions with Wnt-stimulator R-spondin, in vitro
Method: FIG. 2. Left: Exposure of prostate cancer patient-derived 3-D organoids, cultured in 3D conditions in the presence of Wnt-stimulator R-spondin, to cytotoxic drugs (100 nM; vinblastine highlighted with red) and validation of vinblastine response in the respective patient-derived xenograft (PDX) model. […] Right: Histological similarities of in-vitro vs. in-vivo drug-refractory malignant foci.
(§1) Viability is determined by methods known in the art. A preferred method to determine cell viability is the measurement of bioluminescence in cells stably transfected with the luciferase expression vector upon addition of the luciferase substrate. An alternative method to determine cell viability is the measurement of fluorescence in cells stably transfected with the expression vectors of fluorescent protein (e.g. GFP or RFP). Alternatively, the cell viability can be measured by ATP-based assays; for example the Cell-Titer Glow assay. Alternatively, the cell viability can be measured by colorimetric assays, for example the MTT assay. Alternatively, cell viability can be measured by conventional or automated microscopy methods as determined by the size and shape of the cancer organoids. Alternatively, cell viability can be measured by assays measuring mitochondrial function such as the BH3 profiling assay. […]

[3] = tested on: breast cancer patient-derived 3-D organoids; experiment: Regrowth of breast cancer patient-derived 3-D organoids after docetaxel washout; settings: 100 nM for 10 days, then 8 weeks after washout
Method: FIG. 11: Breast cancer patient-derived 3-D organoids treated with DMSO-control (left) or 100 nM Docetaxel (center) for 10 days, and 8 weeks after docetaxel washout (right).

[4] = tested on: MDA-MB-231 3-D organoids; experiment: Longitudinal exposure of MDA-MB-231 3-D organoids to cytotoxic drugs; settings: 100 nM, 3D culture spheroids
Method: (§2) FIG. 1: Right: Longitudinal exposure of MDA-MB-231 3-D organoids and 2-D cultures to cytotoxic drugs (100 nM). […] Left: H&E staining of day-15 drug-refractory MDA-MB-231 organoids and respective control.
as §1

[5] = tested on: MDA-MB-231 2-D cultures; experiment: Longitudinal exposure of MDA-MB-231 2-D cultures to cytotoxic drugs; settings: 100 nM, 2D culture
Method: as §2, §1

SMILES	cross-resistance of organoids refractory to the named drug [1]	cell viability curve [2]	regrowth of drug-refractory organoids after drug washout [3]	cell killing (viability curve) [4]	cell killing (viability curve) [5]
CC[C@]1(O)C[C@@H]2CN(CCc3c([nH]c4ccccc34)[C@@](C(=O)OC)(c3cc4c(cc3OC)N(C)[C@H]3[C@@](O)(C(=O)OC)[C@H](OC(C)=O)[C@]5(CC)C=CCN6CC[C@]43[C@@H]65)C2)C1 [vinblastine]	cross-resistance	cell viability curve plateauing			
CC(=O)O[C@@]12CO[C@@H]1C[C@H](O)[C@@]1(C)C(=O)[C@H](O)C3=C(C)[C@@H](OC(=O)[C@H](O)[C@@H](NC(=O)OC(C)(C)C)c4ccccc4)C[C@@](O)([C@@H](OC(=O)c4ccccc4)[C@H]21)C3(C)C [docetaxel]			ability of drug-refractory organoid to regenerate fully-grown organoids	only a fraction of the cells	kills virtually all the cells
